Results published in patent US5587402A, “Regression of mammalian leukemia cell tumors” (priority 1995, dated 1996).

Assays:
[1] = system: isoprenylation of 21-26 kDa proteins in NIH3T3 (mouse embryo) cells; test: Protein isoprenylation in NIH3T3 cells (21-26 kDa bands, SDS-PAGE fluorography); type: cell-based; set-up: Relative activity (inhibition of isoprenylation of 21-26 kDa proteins): key to the marks not given beside the values; conditions: Experiment 2; 1 mM
Procedure: NIH3T3 (mouse embryo) cells were obtained from the American Type Culture Collection and were grown in Dulbecco's modified Eagle's medium supplemented with 10% calf serum. […] Because they carried a radioactive label, isoprenylated proteins were visualized by fluorography. As a control, cells were incubated without the monoterpene. […] Whole cell extracts were analyzed by SDS-PAGE on 16-cm×18-cm×0.75-mm gels by the method of Laemmli (supra). […] Gels were stained with Coomassie Brilliant Blue, equilibrated for 20 minutes in Amplify (Amersham Corp.) fluorographic reagent, dried under vacuum at 65° C., and exposed to […] Some fluorograms were analyzed further by densitometry. […] Protein content was measured by the method of Lowry, et al. […] FIG. 1 depicts the structures of these monoterpenes.

[2] = system: isoprenylation of 21-26 kDa proteins in M600B cells; test: Protein isoprenylation in M600B human mammary epithelial cells; type: cell-based
human cancer cell lines = test: Growth of human cancer cell lines (NCI Developmental Therapeutics Program); type: cell-based
Procedure: Various concentrations of perillyl alcohol inhibited the growth of a number of human cancer cell lines. FIG. 5A-G is a set of diagrams showing the effects of perillyl alcohol on different cancer cell lines. These experiments were conducted by the National Cancer Institute Developmental Therapeutics Program.

[3] = system: DMBA-induced rat mammary carcinomas; test: Pair-feeding study: regression and inhibition of DMBA-induced mammary carcinomas in rats; type: in vivo, Wistar-Furth female rats
Procedure: We used Wistar-Furth female rats for in vivo studies. Wistar-Furth female rats were obtained from Harlan Sprague-Dawley, Inc., (Madison, Wis.). […] Rates were provided Teklad Lab blox chow and acidified water ad libitum.
The DMBA was dissolved in a stock solution of 20 mg DMBA/ml sesame oil, heated and allowed to cool to room temperature before administration. DMBA (Eastman Kodak, Rochester, N.Y.) was given as a single gastric intubation of 50 mg DMBA/kg rat body weight.
In the pair-feeding study, a group of 70 mammals was treated with DMBA. Beginning four weeks post-carcinogen administration, mammals were weighed and palpated weekly.
Fresh diets were make every 7-10 days. All mammals were provided fresh diet daily to minimize evaporation of the monoterpenes.
In a pair-feeding study, all palpable mammary tumors were classified as either "primary" tumors (i.e., the first tumor(s) palpated with a minimum diameter of 3 mm) or "secondary" tumors (i.e. a palpable tumor arising after initial diet assignment). […] All carcinogen-exposed mammals not bearing a first palpable tumor by week 15 post-carcinogen were removed from the experiment. Complete regression of a tumor was defined as non-palpability for a minimum of three consecutive weeks. All mammals in the pair-feeding study were followed for a minimum of 10 weeks post-diet assignment for tumor growth or regression at primary tumor sites and all other mammary glands. The rats were necropsied if moribund. Complete necropsies were performed on all rats at the termination of the study.

[4] = system: nontransformed FDC-P1 cells; test: Proliferation of nontransformed FDC-P1 myeloid cells; type: cell-based, murine; conditions: Mus musculus, FDC-P1, read-out: inhibition of cell growth
Procedure: (The p210 bcr/abl oncogene is carried on a helper-free retrovirus referred to as "p210.") FDC-P1 myeloid cells are an immature cell line from myeloid lineage derived from mouse bone marrow (Dexter, TM, J. Exp. Med. 152: 1036-1047, 1980).

[5] = system: p210 transformed FDC-P1 cells (F-p210.1); test: Cell cycle distribution of p210-transformed FDC-P1 cells; type: cell-based, murine; conditions: for Cell cycle distribution (% > GO /G1): untreated control 53; for arrest at the G0/G1 stage: 500 μM
Procedure: Table 3 tabulates the effect of P-OH on cell cycle distribution of nontransformed and p210 transformed FDC-P1 cells.
^1 Cells were plated at 2.5 × 10^5 per ml in duplicate well
of a 24well plate in the presence of 10% WEHI3-conditioned media as a
source of IL3 and with the indicated concentration of P--OH. After 24
hours, the cells were fixed in ethanol, permeabilized and stained with
propidium iodide, then analyzed for DNA content by flow cytometry.
^2 FDCP1 = nontransformed cells, Fp210.1 = 210transformed FDCP1 cells

[6] = Pharmacologic analysis of serum concentration in rats; type: in vivo; conditions: rats fed 2% perillyl alcohol
From the text: In light of these observations, and our belief that p21^ras may be a target for perillyl alcohol activity in bcr/abl-transformed cells, it may be relevant that cellular ras activity is required for proliferating cells to pass through G1 (Dobrowski, et al., Mol. Cell Biol. 14: 5441-49, 1994).

C=C(C)[C@@H]1CC=C(CO)CC1 [perillyl alcohol]
Relative activity (inhibition of isoprenylation of 21-26 kDa proteins) [1]: +++++
isoprenylation of 21-26 kDa proteins ([2]; 3 mM, FIG. 2): inhibited significantly
inhibition of isoprenylation ([2]; all cell types examined): inhibition of isoprenylation
inhibition of cell growth (human cancer cell lines; variety of human cancer cell types including leukemia cells (FIG. 5A)): inhibition of cell growth
inhibition of cancer cell growth (human cancer cell lines; various concentrations, FIG. 5A-G, all lines): inhibited cancer cell growth
development of secondary tumors ([3]; 2.5% perillyl alcohol diet): inhibited the development of secondary tumors
Primary Tumor Regression (tumors regressed / tumors) ([3]; 2.5% perillyl alcohol diet, complete regression, pair-fed control 9/29, listed as POH): 22/27
Primary Tumor Regression (%) ([3]; 2.5% perillyl alcohol diet, complete regression, pair-fed control 31%): 81%
Number of Secondary Tumors/Rat ([3]; 2.5% perillyl alcohol diet, pair-fed control 1.62): 0.04
Time to Regress ([3]; 2.5% perillyl alcohol diet, pair-fed control 5.6, listed as POH): 3.6 ± 0.3 wks
Secondary Tumor Regression (tumors regressed / tumors) ([3]; 2.5% perillyl alcohol diet, pair-fed control 11/42): 0/1
Secondary Tumor Regression (%) ([3]; 2.5% perillyl alcohol diet, pair-fed control 26%): 0%
secondary tumors / mammals ([3]; 2.5% perillyl alcohol diet, pair-fed control 42/26): 1/26
amount of perillyl alcohol needed relative to the amount of limonene ([3]; 2.5% perillyl alcohol versus 10% limonene diet): 25%
time for a primary tumor to regress to a non-palpable mass ([3]; perillyl alcohol-treated group versus pair-fed controls): shorter than the time for spontaneous regression in the pair-fed controls
inhibition at 400 µM [4]: < 15%
Cell cycle distribution (% > GO /G1) ([5]; 100 μM P--OH, 24 hours): 53%
apoptosis ([5]; 500 μM P--OH, 24 hours): Significant apoptosis
Cell cycle distribution (% > GO /G1) ([5]; 500 μM P--OH, 24 hours): 16%
arrest at the G0/G1 stage ([5]; 24 hours): almost completely arrested at the G0 /G1 stage
arrest at the G0/G1 stage ([5]; 24 hours, listed as P--OH): entirely in the G0 /G1 stage of the cell cycle
morphological changes ([5]; up to 500 μM): morphological changes suggestive of apoptotic cell death
serum concentration relative to the in vitro effective concentration range [6]: within the effective concentration range observed in these in vitro experiments
